{"source": "patent US20090270398A1", "about": "“Compounds, Compositions and Methods Comprising Pyridazine Derivatives” (Institute for OneWorld Health, priority 2008, published 2009)", "data": [{"target": "T1, CFTR (Homo sapiens, UniProt P13569)", "T1 construct": "results in the phosphorylation and opening of CFTR anion channels", "T1 sequence (P13569 whole entry)": "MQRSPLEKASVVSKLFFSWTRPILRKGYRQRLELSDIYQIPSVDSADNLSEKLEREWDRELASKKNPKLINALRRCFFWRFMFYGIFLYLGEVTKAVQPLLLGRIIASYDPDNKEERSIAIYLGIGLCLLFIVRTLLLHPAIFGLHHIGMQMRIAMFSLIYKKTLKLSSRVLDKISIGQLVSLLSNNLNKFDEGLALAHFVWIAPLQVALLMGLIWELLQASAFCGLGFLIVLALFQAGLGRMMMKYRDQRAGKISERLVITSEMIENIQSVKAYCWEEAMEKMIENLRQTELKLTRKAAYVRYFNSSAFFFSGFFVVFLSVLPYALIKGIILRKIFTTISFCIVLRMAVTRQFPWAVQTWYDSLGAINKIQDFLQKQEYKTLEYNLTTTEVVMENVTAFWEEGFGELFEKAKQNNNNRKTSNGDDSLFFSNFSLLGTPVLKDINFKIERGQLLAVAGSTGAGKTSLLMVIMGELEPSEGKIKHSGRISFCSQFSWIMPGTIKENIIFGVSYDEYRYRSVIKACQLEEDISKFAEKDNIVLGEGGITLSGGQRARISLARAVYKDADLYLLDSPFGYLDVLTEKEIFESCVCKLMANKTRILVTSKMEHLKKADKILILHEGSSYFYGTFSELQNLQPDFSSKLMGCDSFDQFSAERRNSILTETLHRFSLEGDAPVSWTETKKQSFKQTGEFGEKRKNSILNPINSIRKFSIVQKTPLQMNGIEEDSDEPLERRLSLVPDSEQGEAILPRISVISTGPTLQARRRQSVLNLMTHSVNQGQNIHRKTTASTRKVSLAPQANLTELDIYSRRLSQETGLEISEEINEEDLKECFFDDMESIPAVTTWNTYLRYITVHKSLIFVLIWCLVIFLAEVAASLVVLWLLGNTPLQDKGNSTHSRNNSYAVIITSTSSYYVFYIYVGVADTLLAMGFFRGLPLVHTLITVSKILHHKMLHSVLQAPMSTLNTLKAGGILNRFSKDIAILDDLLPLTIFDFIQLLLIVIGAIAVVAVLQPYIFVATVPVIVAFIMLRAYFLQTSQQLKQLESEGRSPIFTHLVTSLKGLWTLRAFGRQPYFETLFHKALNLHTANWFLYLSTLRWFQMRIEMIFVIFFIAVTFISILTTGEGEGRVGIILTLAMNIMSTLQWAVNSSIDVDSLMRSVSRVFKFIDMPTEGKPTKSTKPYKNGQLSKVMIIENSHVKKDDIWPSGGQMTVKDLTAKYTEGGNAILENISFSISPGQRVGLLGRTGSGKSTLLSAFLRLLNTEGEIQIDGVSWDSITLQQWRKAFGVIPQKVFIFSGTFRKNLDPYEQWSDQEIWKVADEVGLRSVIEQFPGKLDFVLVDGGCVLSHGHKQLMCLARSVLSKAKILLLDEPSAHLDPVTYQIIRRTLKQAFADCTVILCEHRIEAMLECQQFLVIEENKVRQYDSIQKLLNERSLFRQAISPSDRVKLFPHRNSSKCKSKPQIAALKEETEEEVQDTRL", "assay": "T84 assay (FLIPR membrane potential, forskolin/IBMX-stimulated CFTR channel activity)", "type": "cell-based", "settings": "average of at least 2 runs unless annotated n = 1", "procedure": "(§1) For example, Human colonic T84 cells can be acquired from the European Collection of Cell Cultures (ECACC) and grown in standard culture conditions as described by the supplier. On the day before assay 25,000 T84 cells per well are plated into standard black walled, clear bottom 384-well assay plates in standard growth medium consisting of DMEM:F12 with 10% FBS and incubated overnight. On the day of the assay the plates are washed using a standard assay buffer (HBSS with 10 mM Hepes) and incubated for 15 minutes in serum free cell culture medium before the addition of a commercially available membrane potential sensitive fluorescent dye (FLIPR Red membrane potential dye, Molecular Devices Corporation). T84 cells are incubated with the FLIPR Red membrane potential dye for 45 minutes in the presence and absence of test compound before being transferred to a commercially available fluorescence imaging plate reader (FLIPR384, Molecular Devices Corporation). Fluorescence levels are monitored continuously every second for 150 seconds; after an initial 10 second baseline, CFTR channel activity is stimulated through the addition of 10 μM forskolin in the presence of 100 μM of the phosphodiesterase inhibitor iso-butyl-methylxanthine (IBMX). Addition of the forskolin leads to the activation of intracellular adenylyl cylase 1, elevating cAMP levels and results in the phosphorylation and opening of CFTR anion channels. CFTR channel opening causes chloride ion efflux and subsequent depolarization of the cells, which is measured by an increase in fluorescence. CFTR inhibitor compounds prevent cell depolarization and the associated increase in fluorescence.\nas §1, with “Human colonic” for “For example, Human colonic”, “T84 cells are acquired from” for “T84 cells can be acquired from”, “(ECACC) and are grown in” for “(ECACC) and grown in”\nUnless otherwise indicated, the IC50 values are reported as an average of at least 2 runs. Where only 1 run is used, this is indicated by the annotation “n=1.”", "units": {"IC50": "µM"}, "values": [{"smiles": "Oc1c(Br)cc(-c2ccc(OCCc3cccc(Cl)c3Cl)nn2)cc1Br", "note": "[Compound 94, 2,6-dibromo-4-(6-(2,3-dichlorophenethoxy)pyridazin-3-yl)phenol]", "IC50": 8.03}, {"smiles": "CN(Cc1ccccc1)c1ccc(-c2cc(Cl)c(O)c(Cl)c2)nn1", "note": "[Compound 118, 4-(6-(benzyl(methyl)amino)pyridazin-3-yl)-2,6-dichlorophenol]", "IC50": 0.06}, {"smiles": "Oc1c(Cl)cc(-c2ccc(N3CCc4ccccc4C3)nn2)cc1Cl", "note": "[Compound 122, 2,6-dichloro-4-(6-(3,4-dihydroisoquinolin-2(1H)-yl)pyridazin-3-yl)phenol]", "IC50": 0.15}, {"smiles": "CN(Cc1ccc(-c2ccncc2)cc1)c1ccc(-c2cc(Cl)c(O)c(Cl)c2)nn1", "note": "[Compound 125, 2,6-dichloro-4-(6-(methyl(4-(pyridin-4-yl)benzyl)amino)pyridazin-3-yl)phenol]", "IC50": 2.05}, {"smiles": "CCN(Cc1ccc(OC)c(F)c1)c1ccc(-c2cc(Cl)c(O)c(Cl)c2)nn1", "note": "[Compound 131, 2,6-dichloro-4-(6-(ethyl(3-fluoro-4-methoxybenzyl)amino)pyridazin-3-yl)phenol]", "IC50": 1.46}, {"smiles": "CCCN(Cc1ccccc1)c1ccc(-c2cc(Cl)c(O)c(Cl)c2)nn1", "note": "[Compound 126, 4-(6-(benzyl(propyl)amino)pyridazin-3-yl)-2,6-dichlorophenol]", "IC50": 0.02}, {"smiles": "Oc1c(Cl)cc(-c2ccc(OCCc3ccccc3)nn2)cc1Cl", "note": "[Compound 103, 2,6-dichloro-4-(6-phenethoxypyridazin-3-yl)phenol]", "IC50": 5.75}, {"smiles": "CN(Cc1ccc2ncccc2c1)c1ccc(-c2cc(Cl)c(O)c(Cl)c2)nn1", "note": "[Compound 132, 2,6-dichloro-4-(6-(methyl(quinolin-6-ylmethyl)amino)pyridazin-3-yl)phenol]", "IC50": 6.69}, {"smiles": "Oc1c(Cl)cc(-c2ccc(NCc3ccccc3)nn2)cc1Cl", "note": "[Compound 110, 4-(6-(benzylamino)pyridazin-3-yl)-2,6-dichlorophenol]", "IC50": 0.73}, {"smiles": "OCCN(Cc1ccncc1)c1ccc(-c2cc(Cl)c(O)c(Cl)c2)nn1", "note": "[Compound 116, 2,6-dichloro-4-(6-((2-hydroxyethyl)(pyridin-4-ylmethyl)amino)pyridazin-3-yl)phenol]", "IC50": 16.5}, {"smiles": "Oc1c(Cl)cc(-c2ccc(NCc3ccc(Cl)c(Cl)c3)nn2)cc1Cl", "note": "[Compound 137, 2,6-dichloro-4-(6-(3,4-dichlorobenzylamino)pyridazin-3-yl)phenol]", "IC50": 6}, {"smiles": "Oc1c(Cl)cc(-c2ccc(OCC3(c4ccccc4)CCN(Cc4ccc(Cl)nc4)CC3)nn2)cc1Cl", "note": "[Compound 108, 2,6-dichloro-4-(6-((1-((6-chloropyridin-3-yl)methyl)-4-phenylpiperidin-4-yl)methoxy)pyridazin-3-yl)phenol]", "IC50": 0.63}, {"smiles": "CC(Oc1ccc(-c2cc(Br)c(O)c(Br)c2)nn1)c1cccc(Cl)c1", "note": "(stereo not drawn) [Compound 90, 2,6-dibromo-4-(6-(1-(3-chlorophenyl)ethoxy)pyridazin-3-yl)phenol]", "IC50": 17.6}, {"smiles": "CN(Cc1cccnc1)c1ccc(-c2cc(Cl)c(O)c(Cl)c2)nn1", "note": "[Compound 124, 2,6-dichloro-4-(6-(methyl(pyridin-3-ylmethyl)amino)pyridazin-3-yl)phenol]", "IC50": 1.65}, {"smiles": "Oc1c(Cl)cc(-c2ccc(NCc3cc(F)cc(C(F)(F)F)c3)nn2)cc1Cl", "note": "[Compound 138, 2,6-dichloro-4-(6-(3-fluoro-5-(trifluoromethyl)benzylamino)pyridazin-3-yl)phenol]", "IC50": 9.58}, {"smiles": "Oc1c(Cl)cc(-c2ccc(N(Cc3ccccc3)Cc3ccccc3)nn2)cc1Cl", "note": "[Compound 133, 2,6-dichloro-4-(6-(dibenzylamino)pyridazin-3-yl)phenol]", "IC50": 0.38}, {"smiles": "Oc1c(Cl)cc(-c2ccc(NCc3cc(F)ccc3F)nn2)cc1Cl", "note": "[Compound 117, 2,6-dichloro-4-(6-(2,5-difluorobenzylamino)pyridazin-3-yl)phenol]", "IC50": 1.36}, {"smiles": "OCCN(Cc1ccc(F)cc1)c1ccc(-c2cc(Cl)c(O)c(Cl)c2)nn1", "note": "[Compound 111, 2,6-dichloro-4-(6-((4-fluorobenzyl)(2-hydroxyethyl)amino)pyridazin-3-yl)phenol]", "IC50": 0.37}, {"smiles": "CCOc1ccc(CN(CC)c2ccc(-c3cc(Cl)c(O)c(Cl)c3)nn2)cc1OC", "note": "[Compound 129, 2,6-dichloro-4-(6-((4-ethoxy-3-methoxybenzyl)(ethyl)amino)pyridazin-3-yl)phenol]", "IC50": 1.16}, {"smiles": "Oc1c(Br)cc(-c2ccc(OCc3cccc4ccccc34)nn2)cc1Br", "note": "[Compound 95, 2,6-dibromo-4-(6-(naphthalen-1-ylmethoxy)pyridazin-3-yl)phenol]", "IC50": 7.9}, {"smiles": "Oc1c(Cl)cc(-c2ccc(OCCc3cccs3)nn2)cc1Cl", "note": "[Compound 102, 2,6-dichloro-4-(6-(2-(thiophen-2-yl)ethoxy)pyridazin-3-yl)phenol]", "IC50": 6.84}, {"smiles": "Oc1c(Cl)cc(-c2ccc(OCc3ccccc3)nn2)cc1Cl", "note": "[Compound 119, 4-(6-(benzyloxy)pyridazin-3-yl)-2,6-dichlorophenol]", "IC50": 2.76}, {"smiles": "COc1ccc(CN(CCO)c2ccc(-c3cc(Cl)c(O)c(Cl)c3)nn2)cc1OC", "note": "[Compound 134, 2,6-dichloro-4-(6-((3,4-dimethoxybenzyl)(2-hydroxyethyl)amino)pyridazin-3-yl)phenol]", "IC50": 6.9}, {"smiles": "Oc1c(Br)cc(-c2ccc(OCCc3ccc(Cl)cc3)nn2)cc1Br", "note": "[Compound 92, 2,6-dibromo-4-(6-(4-chlorophenethoxy)pyridazin-3-yl)phenol]", "IC50": 3.38}, {"smiles": "Oc1c(Cl)cc(-c2ccc(OCc3cnc(Br)s3)nn2)cc1Cl", "note": "[Compound 105, 4-(6-((2-bromothiazol-5-yl)methoxy)pyridazin-3-yl)-2,6-dichlorophenol]", "IC50": 20.8}, {"smiles": "OCCN(Cc1cccnc1)c1ccc(-c2cc(Cl)c(O)c(Cl)c2)nn1", "note": "[Compound 109, 2,6-dichloro-4-(6-((2-hydroxyethyl)(pyridin-3-ylmethyl)amino)pyridazin-3-yl)phenol]", "IC50": 4.72}, {"smiles": "COCCN(Cc1ccccc1)c1ccc(-c2cc(Cl)c(O)c(Cl)c2)nn1", "note": "[Compound 114, 4-(6-(benzyl(2-methoxyethyl)amino)pyridazin-3-yl)-2,6-dichlorophenol]", "IC50": 0.13}, {"smiles": "OCCN(Cc1ccccc1Cl)c1ccc(-c2cc(Cl)c(O)c(Cl)c2)nn1", "note": "[Compound 112, 2,6-dichloro-4-(6-((2-chlorobenzyl)(2-hydroxyethyl)amino)pyridazin-3-yl)phenol]", "IC50": 1.53}, {"smiles": "OCCN(Cc1cccc(OCc2ccccc2Cl)c1)c1ccc(-c2cc(Cl)c(O)c(Cl)c2)nn1", "note": "[Compound 130, 2,6-dichloro-4-(6-((3-(2-chlorobenzyloxy)benzyl)(2-hydroxyethyl)amino)pyridazin-3-yl)phenol]", "IC50": 2.27}, {"smiles": "Oc1c(Br)cc(-c2ccc(OCCc3ccc(Br)cc3)nn2)cc1Br", "note": "[Compound 93, 2,6-dibromo-4-(6-(4-bromophenethoxy)pyridazin-3-yl)phenol]", "IC50": 4.2}, {"smiles": "Oc1c(Br)cc(-c2ccc(OCc3cccc(Cl)c3Cl)nn2)cc1Br", "note": "[Compound 99, 2,6-dibromo-4-(6-(2,3-dichlorobenzyloxy)pyridazin-3-yl)phenol]", "IC50": 12.4}, {"smiles": "Oc1c(Br)cc(-c2ccc(OCCc3cccc4ccccc34)nn2)cc1Br", "note": "[Compound 100, 2,6-dibromo-4-(6-(2-(naphthalen-1-yl)ethoxy)pyridazin-3-yl)phenol]", "IC50": 25.3}, {"smiles": "Oc1c(Br)cc(-c2ccc(OCc3ccc(F)cc3Cl)nn2)cc1Br", "note": "[Compound 89, 2,6-dibromo-4-(6-(2-chloro-4-fluorobenzyloxy)pyridazin-3-yl)phenol]", "IC50": 6.01}]}]}
